Source: the supplement of paper PMC10307832

How the values were obtained:
Test in all cases: relative viability (nuclei count vs DMSO), 5 days (fraction); higher = more cells survive
[1] = compound: CN(NC(=O)CC(=O)NN(C)C(=S)c1ccccc1)C(=S)c1ccccc1 [Elesclomol] + C[C@]1(O)C[C@@H](c2nc(-c3ccc4ccc(-c5ccccc5)nc4c3)c3c(N)nccn32)C1 [Linsitinib] (partner 1 µM)
Summary of the method: (§1)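 Dosing by pin tool came one day after lung cancer cell lines were seeded in 1536-well plates, using either one drug or a fixed anchor-drug dose plus five library-drug doses (not always all listed) in √10 steps. After 5 days, nuclei were counted on 4× images. Relative viability is treated-well nuclei count divided by vehicle-well nuclei count, and values are medians of duplicate plates.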

[2] = compound: CN(NC(=O)CC(=O)NN(C)C(=S)c1ccccc1)C(=S)c1ccccc1 [Elesclomol] + Nc1nc2[nH]cc(CCc3ccc(C(=O)N[C@@H](CCC(=O)O)C(=O)O)cc3)c2c(=O)[nH]1 [Pemetrexed] (partner 0.2 µM)
Summary of the method: as §1

[3] = compound: CN(NC(=O)CC(=O)NN(C)C(=S)c1ccccc1)C(=S)c1ccccc1 [Elesclomol] + CC(C)C[C@H](NC(=O)[C@H](Cc1ccccc1)NC(=O)c1cnccn1)B(O)O [Bortezomib] (partner 0.002 µM)
Summary of the method: as §1

[4] = compound: CN(NC(=O)CC(=O)NN(C)C(=S)c1ccccc1)C(=S)c1ccccc1 [Elesclomol] + N=C(N)NC(=N)NCCc1ccccc1 [Phenformin] (partner 250 µM)
Summary of the method: as §1

[5] = compound: CN(NC(=O)CC(=O)NN(C)C(=S)c1ccccc1)C(=S)c1ccccc1 [Elesclomol] + Cc1cc(Nc2cc(N3CCN(C)CC3)nc(Sc3ccc(NC(=O)C4CC4)cc3)n2)n[nH]1 [Tozasertib] (partner 0.1 µM)
Summary of the method: as §1

Cell Line | relative viability ([1]; first compound 0.003162 µM) | relative viability ([1]; first compound 0.01 µM) | relative viability ([1]; first compound 0.03162 µM) | relative viability ([1]; first compound 0.1 µM) | relative viability ([2]; first compound 0.003162 µM) | relative viability ([2]; first compound 0.01 µM) | relative viability ([2]; first compound 0.03162 µM) | relative viability ([2]; first compound 0.1 µM) | relative viability ([3]; first compound 0.003162 µM) | relative viability ([3]; first compound 0.01 µM) | relative viability ([3]; first compound 0.03162 µM) | relative viability ([3]; first compound 0.1 µM) | relative viability ([4]; first compound 0.003162 µM) | relative viability ([4]; first compound 0.01 µM) | relative viability ([4]; first compound 0.03162 µM) | relative viability ([4]; first compound 0.1 µM) | relative viability ([5]; first compound 0.003162 µM) | relative viability ([5]; first compound 0.01 µM) | relative viability ([5]; first compound 0.03162 µM) | relative viability ([5]; first compound 0.1 µM)
NCI-H650 | 1.04 | 0.308 | 0.304 | 0.291 | 0.884 | 0.728 | 0.449 | 0.191 | 1.02 | 0.309 | 0.199 | 0.198 | 0.468 | 0.345 | 0.315 | 0.361 | 0.737 | 0.351 | 0.222 | 0.192
LCLC-103H | 1.11 | 1.02 | 1.01 | 1.07 | 0.476 | 0.483 | 0.467 | 0.431 | 1.12 | 0.865 | 1.07 | 0.838 | 0.355 | 0.275 | 0.384 | 0.292 | 0.477 | 0.377 | 0.426 | 0.202
PC-14 | 0.98 | 0.85 | 0.0931 | 0.0455 | 0.14 | 0.0457 | 0.0214 | 0.0198 | 0.862 | 0.244 | 0.0404 | 0.0297 | 0.404 | 0.16 | 0.0586 | 0.023 | 0.502 | 0.0652 | 0.0256 | 0.0175
NCI-H2228 | 0.694 | 0.541 | 0.365 | 0.0338 | 0.307 | 0.308 | 0.143 | 0.0377 | 0.926 | 0.893 | 0.422 | 0.0364 | 0.294 | 0.188 | 0.159 | 0.0554 | 0.242 | 0.257 | 0.166 | 0.051
COR-L23 | 0.985 | 0.511 | 0.32 | 0.244 | 0.212 | 0.206 | 0.19 | 0.155 | 0.809 | 0.625 | 0.579 | 0.252 | 0.367 | 0.187 | 0.163 | 0.053 | 0.234 | 0.155 | 0.15 | 0.0966
NCI-H1915 | 1.09 | – | 1.05 | 0.971 | 0.499 | 0.456 | 0.481 | 0.286 | 0.857 | – | 1.01 | 0.526 | 0.37 | – | 0.38 | 0.371 | 0.412 | – | 0.397 | 0.258
